Laboratory results from patent US10124007B2, “Combination of PI3K-inhibitors” (BAYER PHARMA AKTIENGESELLSCHAFT, priority 2013, dated 2018).
Where “and” joins values, the source holds several entries; their conditions need not be identical. Equal values may be shown once.

Assays:
[1] = test system: 4T1-GFP-fluorescent mouse breast cancer cells; test: 4T1-GFP syngeneic breast cancer bone metastasis model in mice; type: in vivo, Balb/c mice; details: for Survival Days after Treatment, Average: average of 10 survival animals; for Survival Days after Treatment, Average / Survival Days after Treatment: radium 223 300 kBq/kg iv once, Compound A1 75 mg/kg po QD; for Survival Days after Treatment: individual survival animals 1-10; for Adrenal glands with metastasis / Ovaries with metastasis / Kidneys with metastasis: non-survival animals sacrificed at day 12 or 13; for Kidneys with metastasis: macroscopic findings and fluorescence imaging
Protocol: The monotherapy and the combination of compound A1 and radium 223 were tested in a syngeneic animal model that resembles the characteristics of breast cancer bone metastatic disease in humans. This model can be effectively used for testing the effects of cancer drug candidates on the metastasis of breast cancer cells to bone.
To this extend, 4T1-GFP-fluorescent mouse breast cancer cells were inoculated into the left cardiac ventricle of 4-5 weeks old female Balb/c mice. Within one-two weeks after the inoculation, the animals developed osteolytic bone metastases that can be visualized by GFP-fluorescence and X-ray radiography.
On day 7 post tumor cell inoculation, animals were randomized according to radiography and presence of tumor metastases. On day 7, animals were dosed with a single dose of radium 223 or vehicle, daily dose of PI3K inhibitor or a combination treatment with single dose of radium 223 and daily continuous dosing of PI3K inhibitor. Half of the animals (n=10) from each treatment group were sacrificed on day 13 after inoculation, or earlier when they were moribund, half of the animals (N=10) were sacrificed when they became moribund. The osteolytic lesions and whole body tumor burden were measured by x-ray and fluorescence imaging at sacrifice. Furthermore, tissue samples from the left and right tibia and femur were collected for further histomorphometric analysis. Tissue was embedded in paraffin for histomorphometric analysis of bone and tumor area.
Groups: Control group (vehicle) received Alpharadin vehicle (sodium citrate buffer), iv once and PEG/Wfi 60:40 pH 4.0, po QD; radium 223 group was given at 300 kBq/kg of radium 223, iv once and PEG/Wfi 60:40 pH 4.0, po QD; PI3K group was given 75 mg/kg of Compound A1, po QD and radium 223 vehicle, iv once; the combination group was given 300 kBq/kg of radium 223, iv once and 75 mg/kg of Compound A1, po QD;

[2] = test system: LNCaP prostate cancer cells in bone; test: Orthotopic LNCaP CRPC bone model in mice; type: in vivo; details: for Tumor growth (effect in words): LNCaP CRPC model; for Number of osteoclasts at tumor-bone interface (effect in words): TRAP staining; for Inhibition of progression of osteoblastic lesions / Growth/progression of osteoblastic lesions (effect in words): x-ray radiography; for Growth/progression of osteoblastic lesions (effect in words): lesion area
Text: The monotherapy and the combination of compound A1 and radium 223 were further tested in an orthotopic model of LNCaP, a CRPC cell line in mice. The LNCaP cells are known to form osteoblastic and mixed lesions when inoculated to bone marrow cavity. We used this model for testing the effects of compound A1 and radium-223 as single agent and in combination on the growth of LNCaP prostate cancer cells in bone. The osteoblastic bone metastases was visualized by X-ray radiography about six weeks post tumor cell inoculation. Mice with established bone metastases were randomized and treated for 45 days. The following four experimental groups with 13-14 mice in each were included in the study:
1) Vehicle control (Compd A1 vehicle QD po)
2) Ra-223 300 kBq/kg (dosed twice at 4-week intervals)+vehicle QD po
3) Compd A1 75 mg/kg (po QD)
Body weights were determined twice a week. Blood samples were taken and the animals radiographed biweekly. The animals were sacrificed 45 days after dosing, or earlier if they were moribund. Terminal blood samples were taken. Tissue samples were collected and processed for gamma-counter measurements, microCT measurements and histomorphometry.

MCF-7 [3] = test: WST-1 based proliferation assay, MCF-7; type: cell-based, human; details: WST-1, days 1-5
Protocol: (§1) The effects of PI3K inhibitor Compound A1 and radium 223 in MCF-7 and 4T1 breast cancer cells and PC-3 and LNCaP prostate cancer cells were investigated in vitro as single agent and in combination. The effects were studied by measuring cell proliferation and apoptosis. Radium 223 and the reference inhibitor doxorubicin were added at day 0. The PI3K inhibitor(s) was added at day −1 (24 hours before addition of Alpharadin) and at day 4. The following two concentrations of the inhibitors and two concentrations of radium 223 in 4 replicates were tested:
(§2) The effects on cell proliferation were studied using a WST-1 based proliferation assay and the effects on apoptosis were studied in parallel plates by measuring caspase 3/7 activity. The measurements were performed at 4 different time points, days 1, 2, 3 and 5. Caspase activity was normalized to the cell number obtained with the WST-1 assay in parallel plates.

4T1 = test: WST-1 based proliferation assay, 4T1; type: cell-based, mouse; details: for 4T1 cell proliferation at lower dose (effect in words): lower (250 nM) dose
Protocol: as §1, §2

PC-3 = test: WST-1 based proliferation assay, PC-3; type: cell-based, human; details: WST-1, days 1-5
Protocol: as §1, §2

LNCaP = test: WST-1 based proliferation assay, LNCaP; type: cell-based, human; details: for LNCaP cell proliferation (effect in words): WST-1, days 1-5
Protocol: as §1, §2

MCF-7 [4] = test: Caspase 3/7 apoptosis assay, MCF-7; type: cell-based, human; details: caspase 3/7 normalized to WST-1, day 2
Protocol: as §1, §2

[5] = test system: patients with CRPC (Castration Resistant Prostate Cancer) and bone metastases; details: cited from earlier work
[6] = single dose 250 kBq per kg body weight; cited from earlier work
[7] = test system: patients with bone metastases; details: cited from earlier work
[8] = fluorescence imaging at sacrifice

Row | SMILES | Survival Days after Treatment, Average [1] [days] | Whole body tumor burden (effect in words) [1, 8] | Survival Days after Treatment [1] | Adrenal glands with metastasis [1] [%] | Ovaries with metastasis [1] [%] | Kidneys with metastasis [1] [%] | Tumor growth (effect in words) [2] | Number of osteoclasts at tumor-bone interface (effect in words) [2] | Inhibition of progression of osteoblastic lesions [2] [%] | Growth/progression of osteoblastic lesions (effect in words) [2] | MCF-7 cell proliferation (effect in words) (MCF-7 [3]) | 4T1 cell proliferation at lower dose (effect in words) (4T1) | PC3 cell proliferation (effect in words) (PC-3) | MCF-7 apoptosis induction / tumor cell death (effect in words) (MCF-7 [4]) | LNCaP cell proliferation (effect in words) (LNCaP) | other results
1 | [Cl][223Ra][Cl] [radium 223, radium-223 dichloride] | 6.8 | not statistically significant | 8 days (4×) and 6 days (6×) | 94 | 94 | 22 | potently inhibited | eradicated | 56 | significantly inhibited | only slight inhibition | only moderate inhibition | moderate inhibition | could not induce tumor cell death |  | Number of osteoclasts at tumor-bone interface (effect in words) ([2]; listed as Ra-223): decreased; 4T1 cell proliferation at higher dose (effect in words) (4T1; higher dose): strong anti-proliferative effects; LNCaP cell proliferation at high dose (effect in words) (LNCaP; high dose (1600 Bq/mL)): effective; Median survival longer than placebo ([5]; in vivo): 2.8 months; Time to first skeletal-related event ([5]; in vivo): significantly prolonged; Reduction in risk of death compared with placebo ([5]; overall survival): 30.5%; Observed adverse reactions [6]: diarrhea and reversible myelosuppression; Disease-related biomarkers (bone ALP, PSA) ([7]; Phase 2 studies): improves disease-related biomarkers; Pain ([7]; Phase 2 studies): reduces pain; Safety profile ([7]; phase 1 and 2 studies): favorable safety profile, with minimal myelotoxicity
2 | COc1c(OC[C@H](O)CN2CCOCC2)ccc2c1N=C(NC(=O)c1cccnc1C)N1CCN=C21 [Compound A1, N-(8-{[(2R)-2-hydroxy-3-(morpholin-4-yl)propyl]oxy}-7-methoxy-2,3-dihydroimidazo[1,2-c]quinazolin-5-yl)-2-methylpyridine-3-carboxamide] | 6.6 | significantly decreased | 6 days (5×) and 4 days and 8 days (4×) | 61 | 56 | 17 | potently inhibited | decreased | 50 | significantly inhibited | potent anti-proliferative activity | only moderate inhibition | better anti-proliferactive activity | only at high dose can induce apoptosis | strong anti-proliferative effects | Whole body tumor burden reduction ([1]; fluorescence imaging at sacrifice, day 13 after inoculation, 6 days of treatment): 67%; Whole body tumor burden (effect in words) ([1]; fluorescence imaging at sacrifice, listed as compound A1): decreased; Reduction of kidney metastases ([1]; frequency of soft tissue metastases): 73%; Relative tumor area in bone marrow area (effect in words) ([1]; histomorphometry, ANOVA p=0.099477): Trends of inhibition; Reduction in total osteolytic area ([1]; radiography at sacrifice): 53.2%; Total osteolytic area / tumor-induced osteolysis (effect in words) ([1]; radiography at sacrifice): strongly inhibited
3 | COc1cccc2c1C(=O)c1c(O)c3c(c(O)c1C2=O)C[C@@](O)(C(=O)CO)C[C@@H]3O[C@H]1C[C@H](N)[C@H](O)[C@H](C)O1 [doxorubicin] |  |  |  |  |  |  |  |  |  |  | inhibited proliferation |  | inhibited proliferation |  | inhibited proliferation | 4T1 cell proliferation (effect in words) (4T1; WST-1, days 1-5): inhibited proliferation
